# In US11806354B2 (priority 2017, dated 2023):
# Like-named read-outs stand apart in the source and are kept apart here.
# What was measured:
# [1] = Experimental: The effect of varying amounts of potassium carbonate (K2CO3) and sodium bicarbonate (NaHCO3) on the pH of acidic media was tested. The acidic media was chosen to simulate gastric conditions. K2CO3 or NaHCO3 was added to 50 mL of a 0.01 N HCl solution (pH 2). The pH of the solution was measured after addition of the K2CO3 or NaHCO3. Deionized water (240 mL) was then added to the mixture and pH was measured again.
# [2] = Dissolution testing of monolayer meloxicam/rizatriptan tablet in acidic medium (Example 4); assay type: physicochemical; settings: 0.01 N HCl
# Source text: The inclusion complex was the same as the inclusion complex of Example 3.
# migraine patients = test: Phase 3 placebo- and active-controlled trial, acute treatment of moderate and severe migraine (Example 11); assay type: in vivo, human
# Source text: Exclusion criteria included cluster headaches or other types of migraines, chronic daily headache (≥15 non-migraine headache days per month), history of significant cardiovascular disease, and uncontrolled hypertension.
# [3] = human beings, 15 mg intramuscular dose; cited from earlier work
# [4] = monolayer tablet of Example 4, 0 min, 75 RPM, 37° C
# [5] = monolayer tablet of Example 4, 15 min
# [6] = monolayer tablet of Example 4, 30 min
# [7] = monolayer tablet of Example 4, 45 min
# [8] = monolayer tablet of Example 4, 60 min
# [9] = monolayer tablet of Example 4, 90 min
# [10] = monolayer tablet of Example 4, 120 min
smiles,measurement,setting,value
"O=C([O-])O.[Na+] [NaHCO3, sodium bicarbonate]",pH,[1]; 300 mg added to 50 mL 0.01 N HCl,5.90
same,pH,[1]; 750 mg added to 50 mL 0.01 N HCl,8.30
same,pH,"[1]; 1000 mg, 0.01 N HCl + 240 mL water",8.60
CN(C)CCc1c[nH]c2ccc(Cn3cncn3)cc12 [Rizatriptan],percent dissolved,[2]; [4],0%
same,percent dissolved,[2]; [5],89%
same,percent dissolved,[2]; [6],102%
same,percent dissolved,[2]; [7],103%
same,percent dissolved,[2]; [8],103%
same,percent dissolved,[2]; [9],103%
same,percent dissolved,[2]; [10],103%
same,patients experiencing relapse of pain,migraine patients; 48-hour period after dosing,45.2%
same,percentage of patients with sustained pain freedom,migraine patients; 2 hours to 48 hours,8.8%
same,probability of experiencing pain relief,migraine patients; 24 hours after taking,approximately 60%
same,"Any Treatment-Emergent Adverse Event, number of subjects",migraine patients; in vivo,67
same,"Dizziness, % of subjects",migraine patients; in vivo,2.1%
same,"Dizziness, number of subjects",migraine patients; in vivo,9
same,"Nausea, % of subjects",migraine patients; in vivo,4.8%
same,"Nausea, number of subjects",migraine patients; in vivo,21
same,"Somnolence, % of subjects",migraine patients; in vivo,2.1%
same,"Somnolence, number of subjects",migraine patients; in vivo,9
same,median time to pain relief,migraine patients; in vivo,4 h
Cc1cnc(NC(=O)C2=C(O)c3ccccc3S(=O)(=O)N2C)s1 [Meloxicam],percent dissolved,[2]; [4],0%
same,percent dissolved,[2]; [5],79%
same,percent dissolved,[2]; [6],92%
same,percent dissolved,[2]; [7],93%
same,percent dissolved,[2]; [8],93%
same,percent dissolved,[2]; [9],93%
same,percent dissolved,[2]; [10],94%
same,AUC0-24 of meloxicam,[3],about 27 μg·hr/mL
